In PMC11855827, “High-Throughput Screening of Five Compound Libraries for Anthelmintic Activity and Toxicity Leads to the Discovery of Two Flavonoid Compounds” (International Journal of Molecular Sciences, 2025):

System: C. elegans
Settings: Table S2, C. elegans SS assay, 110 μM, averages of 4 data points

Row | Compound | Percentage of motility inhibition 0 h | Percentage of motility inhibition 24 h
1 | CCCCCC(=O)Oc1c(Br)cc(Br)cc1Br [2,4,6‐Tribromophenyl caproate] | 48% | 57%
2 | Cc1ccc2nc(C)ccc2c1 [2,6‐Dimethylquinoline] | 0% | 6%
3 | OCc1ccc(O)cn1 [2‐Hydroxymethyl‐5‐hydroxypyridine] | 0% | 0%
4 | COc1ccc(-c2cc(=O)c3c(OC)c(OC)c(OC)c(OC)c3o2)cc1O [3'‐Demethylnobiletin] | 0% | 0%
5 | O=c1c(-c2ccc(O)c(O)c2)coc2c([C@@H]3O[C@H](CO)[C@@H](O)[C@H](O)[C@H]3O)c(O)ccc12 [3'‐Hydroxypuerarin] | 1% | 0%
6 | COc1cccc(-c2oc3ccccc3c(=O)c2O)c1 [3'‐Methoxyflavonol] | 9% | 0%
7 | COc1cc(-c2coc3c([C@@H]4O[C@H](CO)[C@@H](O)[C@H](O)[C@H]4O)c(O)ccc3c2=O)ccc1O [3'‐Methoxypuerarin] | 11% | 51%
8 | COc1ccc(-c2oc3c(OC)c(OC)c(OC)c(OC)c3c(=O)c2OC)cc1OC [3,5,6,7,8,3',4'‐Heptemthoxyflavone] | 34% | 6%
9 | COc1cc(OC)c2c(=O)c(OC)c(-c3ccc(OC)c(OC)c3)oc2c1 [3,5,7,3′,4′‐Pentamethoxyflavone] | 2% | 24%
10 | O=c1c(O)c(-c2ccc(O)cc2)oc2cc(O)ccc12 [3,7,4'‐Trihydroxyflavone] | 0% | 16%
11 | CC1(COC(=O)c2ccccc2)CCC2(C)CCC3(C)C4=CCC5C(C)(CCC(OC(=O)c6ccccc6)C5(C)C)C4=CCC3(C)C2C1 (stereo not drawn) [3,29-O-Dibenzoyloxykarounidiol] | 15% | 9%
12 | CC(=O)O[C@@H]1CC[C@@]2(C)[C@@H](CC[C@]3(C)[C@@H]2CC=C2[C@@H]4[C@@H](C)[C@H](C)CC[C@]4(C)CC[C@]23C)[C@@]1(C)C(=O)O [3-Acetyl-beta-boswellic acid] | 15% | 21%
13 | CC(C)=CCCC(C(=O)O)C1CCC2(C)C3=C(CCC12C)C1(C)CCC(=O)C(C)(C)C1CC3 (stereo not drawn) [3-Dehydrotrametenolic acid] | 17% | 37%
14 | CC1(C)CC[C@]2(C(=O)O)CC[C@]3(C)C(=CC[C@@H]4[C@@]5(C)CC[C@@H](O)C(C)(C)[C@@H]5CC[C@]43C)[C@@H]2C1 [3-Epioleanolic acid] | 29% | 34%
15 | C[C@H]1[C@H](C)CC[C@]2(C(=O)O)CC[C@]3(C)C(=CC[C@@H]4[C@@]5(C)CC[C@H](O)C(C)(C)[C@@H]5CC[C@]43C)[C@H]12 [3-Epiursolic Acid] | 3% | 18%
16 | CC(=O)O[C@H]1CC[C@]2(C)C3=C(CC[C@H]2C1(C)C)[C@]1(C)C[C@@H](O)[C@H]([C@@H](CCC=C(C)C)C(=O)O)[C@@]1(C)CC3 [3-O-Acetyl-16α-hydroxytrametenolic acid] | 7% | 10%
17 | CC(=O)OC1CCC2(C)C(CCC3(C)C2CC=C2C4CC(C)(C)CCC4(C)CCC23C)C1(C)C(=O)O (stereo not drawn) [3-O-Acetyl-α-boswellic acid] | 20% | 14%
18 | CC1(C)CC[C@]2(C(=O)O)[C@H](O)C[C@]3(C)C(=CC[C@@H]4[C@@]5(C)C[C@H](O)[C@H](O[C@@H]6O[C@H](CO)[C@@H](O)[C@H](O)[C@H]6O)C(CO)(CO)[C@@H]5CC[C@]43C)[C@@H]2C1 [3-O-Beta-D-Glucopyranosylplatycodigenin] | 0% | 0%
19 | CSCCC(=O)O [3‐(Methylthio)propionic acid] | 9% | 0%
20 | CCN1C[C@]2(COC)CC[C@H](OC)C34C1C([C@H](OC)[C@@H]32)[C@]1(OC(C)=O)[C@@H]2[C@H]4C[C@@](O)([C@@H]2OC(=O)c2ccccc2)[C@@H](OC)[C@@H]1O [3‐Deoxyaconitine] | 9% | 0%
21 | Oc1cccnc1 [3‐Hydroxypyr idine] | 18% | 19%
22 | Cc1ncccc1O [3‐Hydroxy‐2‐methylpyridine] | 15% | 0%
23 | O=C(O)Cc1c[nH]c2ccccc12 [3‐Indoleacetic acid] | 4% | 11%

Row | Compound | Percentage of motility inhibition 0 h | Percentage of motility inhibition 24 h
24 | Cl.Cl.Cn1cncc1CCN [3‐Methylhistamine (dihydrochloride)] | 4% | 0%
25 | COc1c(-c2ccccc2)oc2cc(O)cc(O)c2c1=O [3‐O‐Methylgalangin] | 0% | 4%
26 | O=c1cc(-c2ccc(O)cc2)oc2cccc(O)c12 [4',5‐Dihydroxyflavone] | 39% | 6%
27 | COc1ccc(-c2coc3cc(OC)ccc3c2=O)cc1 [4',7‐Dimetho xyisoflavone] | 21% | 27%
28 | COc1ccc(-c2coc3c([C@@H]4O[C@H](CO)[C@@H](O)[C@H](O)[C@H]4O)c(O)ccc3c2=O)cc1 [4'‐Methoxypuerarin] | 14% | 3%
29 | COCc1c(CO)cnc(C)c1O [4'‐O‐Methylpyridoxine] | 26% | 1%
30 | COc1ccc(/C=C/C(=O)c2ccc(OC)cc2)cc1 [4,4'‐Dimetho xychalcone] | 24% | 3%
31 | CC1=COC(=O)[C@H]2[C@@H]1CC[C@@H]2C [4aα,7α,7aα-Nepetalactone] | 17% | 16%
32 | CN1C[C@H](O)C[C@H]1C(=O)O [4‐Hydroxyhygric acid] | 21% | 0%
33 | CC1(C)C=Cc2c(ccc(C(=O)/C=C/c3ccc(O)cc3)c2O)O1 [4‐Hydroxylonchocarpin] | 11% | 9%
34 | O=Cc1c[nH]c2cccc(O)c12 [4‐Hydroxy‐1H‐indole‐3‐carbaldehyde] | 23% | 5%
35 | O=c1cc(-c2ccc(O)cc2)oc2c(C3O[C@H](CO)[C@@H](O[C@@H]4O[C@H](CO)[C@@H](O)[C@H](O)[C@H]4O)[C@H](O)[C@H]3O)c(O)cc(O)c12 (stereo partly drawn) [4”‐O‐Glucosylvitexin] | 0% | 0%
36 | COc1cc(OC)c2c(=O)cc(-c3ccc(OC)c(OC)c3)oc2c1 [5,7,3',4'‐Tetramethoxyflavone] | 0% | 0%
37 | COc1ccc(-c2cc(=O)c3c(OC)cc(OC)cc3o2)cc1 [5,7,4'‐Trimethoxyflavone] | 0% | 1%
38 | O=c1ccoc2cc(O)cc(O)c12 [5,7‐Dihydroxychromone] | 0% | 0%
39 | COc1cc(OC)c2c(=O)cc(-c3ccccc3)oc2c1 [5,7‐Dimethoxyflavone] | 37% | 15%
40 | COc1cc(OC)c2c(=O)cc(-c3ccc(O)c(O)c3)oc2c1 [5,7‐Dimethoxyluteolin] | 24% | 13%
41 | C=C1CCC2C(C=C(C)C(=O)C3(OC(C)=O)CC(C)C(OC(=O)c4ccccc4)C3C1OC(C)=O)C2(C)C (stereo not drawn) [5,15-Diacetyl-3-benzoyllathyrol] | 30% | 32%
42 | CC(=O)[C@H]1CC[C@H]2[C@@H]3CC[C@H]4CC(=O)CC[C@]4(C)[C@H]3CC[C@]12C [5a‐Pregnane‐3,20‐dione] | 2% | 17%
43 | C=C(C(=O)O)[C@@H]1CC[C@@]2(C)CCCC(=C)[C@]2(O)C1 [5α-Hydroxycostic acid] | 13% | 18%
44 | COc1ccc(-c2cc(=O)c3c(O)c(OC)c(OC)cc3o2)cc1OC [5‐Desmethylsinensetin] | 2% | 11%
45 | O=C1Cc2cc(O)ccc2N1 [5‐Hydroxyoxindole] | 15% | 10%
